PubChem BioAssay (NCI)
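Values below derive from 48-hour exposures of cells grown in 96-well plates, with endpoints linearly interpolated between the two concentrations bracketing the appropriate inhibition level. The concentration for full growth arrest is given as TGI.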

Tests used:
Assay in all cases: growth of human tumour cells (NCI), 48 h
[1] = test system: HOP-62 NSCLC
[2] = test system: UACC-257 melanoma
[3] = test system: SK-OV-3 ovarian
[4] = test system: DU-145 prostate
[5] = test system: EKVX NSCLC
[6] = test system: NCI-H226 lung
[7] = test system: MDA-MB-231 breast
[8] = test system: PC-3 prostate
[9] = test system: LOX IMVI melanoma
[10] = test system: RXF 393 renal
[11] = test system: SK-MEL-5 melanoma
[12] = test system: ACHN renal
[13] = test system: NCI/ADR-RES ovarian
[14] = test system: HL-60(TB) leukemia
[15] = test system: NCI-H460 lung
[16] = test system: IGROV1 ovarian
[17] = test system: SK-MEL-2 melanoma
[18] = test system: U251 CNS
[19] = test system: BT-549 breast
[20] = test system: HCT-15 colon
[21] = test system: NCI-H23 lung
[22] = test system: HS 578T breast
[23] = test system: NCI-H522 lung
[24] = test system: HOP-92 NSCLC
[25] = test system: SF-268 CNS
[26] = test system: UACC-62 melanoma
[27] = test system: A549 NSCLC
[28] = test system: CCRF-CEM leukemia
[29] = test system: SNB-19 CNS
[30] = test system: SNB-75 CNS
[31] = test system: OVCAR-4 ovarian
[32] = test system: OVCAR-8 ovarian
[33] = test system: OVCAR-5 ovarian
[34] = test system: SF-295 CNS
[35] = test system: OVCAR-3 ovarian
[36] = test system: MALME-3M melanoma
[37] = test system: SN12C renal
[38] = test system: 786-0 renal
[39] = test system: SR leukemia
[40] = test system: SW-620 colon
[41] = test system: MDA-N
[42] = test system: HCT-116 colon
[43] = test system: CAKI-1 renal
[44] = test system: SK-MEL-28 melanoma
[45] = test system: HCC-2998 colon
[46] = test system: A498 renal
[47] = test system: HT29 colon
[48] = test system: COLO 205 colon
[49] = test system: UO-31 renal
[50] = test system: MDA-MB-435
[51] = test system: SF-539 CNS
[52] = test system: MCF7 breast
[53] = test system: K-562 leukemia
[54] = test system: M14 melanoma
[55] = test system: TK-10 renal

Measured: TGI

CC1=NC(=O)CNN1C1=NNC2(C(=O)N1)c1ccccc1-c1ccccc12
> 100 µM: [1] | [2] | [3] | [4] | [5] | [6] | [7] | [8] | [9] | [10] | [11] | [12] | [13] | [14] | [15] | [16] | [17] | [18] | [19] | [20] | [21] | [22] | [23] | [24] | [25] | [26] | [27] | [28] | [29] | [30] | [31] | [32] | [33] | [34] | [35] | [36] | [37] | [38] | [39] | [40] | [41] | [42] | [43] | [44] | [45] | [46] | [47] | [48] | [49] | [50] | [51] | [52] | [53] | [54] | [55]
